Experiments:
[1] = test system: glial fibrillary acidic protein (GFAP); assay: GFAP reactivity of neural stem cells encapsulated in BAOs with or without EGF; type: cell-based; settings: 20 ng/ml EGF
Description: Neurospheres were prepared using the methods of Weiss et al., PCT/CA 92/00283. Passage 68 neurospheres were collected and divided. Half of the neurospheres were triturated into a single cell suspension and half remained as clusters. A single cell count was performed on a single cell suspension and it was assumed that the clustered cells were of the same concentration. Single cells and clusters were suspended separately in equal amounts of Vitrogen™ and either neurosphere medium with 20 ng/ml EGF as controls, or PC-1 medium.
Cells were loaded at a density of 25,000 cells/μl into single-skinned hollow fiber PAN/PVC BAOs, prepared substantially as described in Example 2, and then hub sealed. The BAOs were held in either neurosphere+EGF medium or in PC-1 medium (with no EGF).
The BAOs were sacrificed after 3 days and 7 days and were stained for glial fibrillary acidic protein (GFAP) by immunocytochemistry. GFAP is an intermediate filament protein specifically expressed in astrocytes. […]

Substance | toxicity of scaffold to PC12 cells (PC12 cells) | GFAP Reactivity ([1]; cell clusters, 3 days) | GFAP Reactivity ([1]; cell clusters, 7 days) | GFAP Reactivity ([1]; single cell, 3 days) | GFAP Reactivity ([1]; single cell, 7 days)
poly(hydroxyethyl methacrylate) [PHEMA] | nontoxic |  |  |  | 
EGF: epidermal growth factor, 20 ng/ml in neurosphere medium |  | Negative | Negative | Negative | Negative
